Where “and” joins values, the source holds several entries; their conditions need not be identical. Equal entries are not always repeated.
Test system: BDF1 mice, Adenocarcinoma 755 s.c., tumor weight T/C
Assay: NCI In Vivo Anticancer Drug Screen. Data for tumor model Adenocarcinoma 755 (subcutaneous) in B6D2F1 (BDF1) mice
Details: endpoint: mean tumor weight, higher = larger tumour
Outline: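 Tumor-bearing mice receive test compound while controls get vehicle alone. Antitumor effect is scored from survival or tumor dimensions as a T/C quotient.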

For `S=c1nc[nH]c2nc[nH]c12`, the T/C (dose: 0.01 mg/kg/injection, schedule: Q01DX011 (ip), vehicle: carboxymethylcellulose (CMC)) was 161 % of control, the T/C (dose: 0.4 mg/kg/injection, schedule: Q01DX011 (ip), vehicle: carboxymethylcellulose (CMC)) was 110 % of control and the T/C (dose: 0.5 mg/kg/injection, schedule: Q01DX011 (ip), vehicle: saline) was 13 % of control. The T/C (dose: 0.69 mg/kg/injection, schedule: Q01DX011 (ip), vehicle: carboxymethylcellulose (CMC)) was 9 % of control, the T/C (dose: 0.75 mg/kg/injection, schedule: Q01DX011 (ip), vehicle: carboxymethylcellulose (CMC)) was 4 % of control and the T/C (dose: 0.87 mg/kg/injection, schedule: Q01DX011 (ip), vehicle: saline) was 21 % of control. For the same molecule, the T/C (dose: 0.9 mg/kg/injection, schedule: Q01DX011 (ip), vehicle: carboxymethylcellulose (CMC)) was 31 % of control, the T/C (dose: 1.0 mg/kg/injection, schedule: Q01DX007 (ip), vehicle: carboxymethylcellulose (CMC)) was 23 % of control and the T/C (dose: 1.0 mg/kg/injection, schedule: Q01DX011 (ip), vehicle: saline) was 2 % of control and 16 % of control and 27 % of control. For the same molecule, the T/C (dose: 1.07 mg/kg/injection, schedule: Q01DX011 (ip), vehicle: carboxymethylcellulose (CMC)) was 32 % of control, the T/C (dose: 1.25 mg/kg/injection, schedule: Q01DX011 (ip), vehicle: carboxymethylcellulose (CMC)) was 3 % of control and 11 % of control and the T/C (dose: 1.38 mg/kg/injection, schedule: Q01DX011 (ip), vehicle: carboxymethylcellulose (CMC)) was 4 % of control. The T/C (dose: 1.5 mg/kg/injection, schedule: Q01DX011 (ip), vehicle: alkali diluted with saline) was 8 % of control, the T/C (dose: 1.5 mg/kg/injection, schedule: Q01DX011 (ip), vehicle: saline) was 3 % of control and 7 % of control and the T/C (dose: 1.75 mg/kg/injection, schedule: Q01DX011 (ip), vehicle: saline) was 13 % of control. For the same molecule, the T/C (dose: 1.75 mg/kg/injection, schedule: Q01DX011 (oral), vehicle: saline) was 22 % of control, the T/C (dose: 1.8 mg/kg/injection, schedule: Q01DX011 (ip), vehicle: carboxymethylcellulose (CMC)) was 4 % of control and 15 % of control and the T/C (dose: 2.0 mg/kg/injection, schedule: Q01DX007 (ip), vehicle: carboxymethylcellulose (CMC)) was 2 % of control and 9 % of control. The T/C (dose: 2.0 mg/kg/injection, schedule: Q01DX011 (ip), vehicle: alkali diluted with saline) was 2 % of control, the T/C (dose: 2.14 mg/kg/injection, schedule: Q01DX011 (ip), vehicle: carboxymethylcellulose (CMC)) was 9 % of control and the T/C (dose: 2.5 mg/kg/injection, schedule: Q01DX011 (oral), vehicle: alkali diluted with saline) was 4 % of control. The T/C (dose: 2.67 mg/kg/injection, schedule: Q01DX011 (ip), vehicle: carboxymethylcellulose (CMC)) was 20 % of control, the T/C (dose: 2.75 mg/kg/injection, schedule: Q01DX011 (ip), vehicle: carboxymethylcellulose (CMC)) was 3 % of control and the T/C (dose: 3.0 mg/kg/injection, schedule: Q01DX011 (ip), vehicle: carboxymethylcellulose (CMC)) was 1 % of control and 2 % of control and 6 % of control. The T/C (dose: 3.0 mg/kg/injection, schedule: Q01DX011 (ip), vehicle: saline) was 1 % of control, the T/C (dose: 3.5 mg/kg/injection, schedule: Q01DX011 (ip), vehicle: saline) was 4 % of control and the T/C (dose: 3.5 mg/kg/injection, schedule: Q01DX011 (oral), vehicle: saline) was 8 % of control. The T/C (dose: 4.0 mg/kg/injection, schedule: Q01DX011 (ip), vehicle: carboxymethylcellulose (CMC)) was 7 % of control, the T/C (dose: 4.0 mg/kg/injection, schedule: Q01DX011 (ip), vehicle: saline) was 5 % of control and the T/C (dose: 4.28 mg/kg/injection, schedule: Q01DX011 (ip), vehicle: carboxymethylcellulose (CMC)) was 4 % of control and 9 % of control. For the same molecule, the T/C (dose: 5.0 mg/kg/injection, schedule: Q01DX007 (ip), vehicle: carboxymethylcellulose (CMC)) was 8 % of control, the T/C (dose: 5.0 mg/kg/injection, schedule: Q01DX011 (ip), vehicle: alkali diluted with saline) was 4 % of control and the T/C (dose: 5.35 mg/kg/injection, schedule: Q01DX011 (ip), vehicle: carboxymethylcellulose (CMC)) was 7 % of control and 17 % of control. The T/C (dose: 5.5 mg/kg/injection, schedule: Q01DX011 (ip), vehicle: carboxymethylcellulose (CMC)) was 4 % of control and 6 % of control, the T/C (dose: 6.0 mg/kg/injection, schedule: Q01DX011 (ip), vehicle: alkali diluted with saline) was 4 % of control and the T/C (dose: 6.0 mg/kg/injection, schedule: Q01DX011 (ip), vehicle: saline) was 1 % of control and 5 % of control. For the same molecule, the T/C (dose: 7.0 mg/kg/injection, schedule: Q01DX011 (oral), vehicle: saline) was 10 % of control, the T/C (dose: 7.13 mg/kg/injection, schedule: Q01DX011 (ip), vehicle: carboxymethylcellulose (CMC)) was 8 % of control and the T/C (dose: 10.0 mg/kg/injection, schedule: Q01DX011 (ip), vehicle: alkali diluted with saline) was 1 % of control and 9 % of control. The T/C (dose: 10.0 mg/kg/injection, schedule: Q01DX011 (oral), vehicle: alkali diluted with saline) was 1 % of control, the T/C (dose: 10.7 mg/kg/injection, schedule: Q01DX011 (ip), vehicle: carboxymethylcellulose (CMC)) was 7 % of control and 8 % of control and the T/C (dose: 11.0 mg/kg/injection, schedule: Q01DX011 (ip), vehicle: carboxymethylcellulose (CMC)) was 4 % of control. For the same molecule, the T/C (dose: 12.5 mg/kg/injection, schedule: Q01DX011 (ip), vehicle: carboxymethylcellulose (CMC)) was 1 % of control, the T/C (dose: 15.0 mg/kg/injection, schedule: Q01DX011 (ip), vehicle: carboxymethylcellulose (CMC)) was 4 % of control and the T/C (dose: 15.0 mg/kg/injection, schedule: Q01DX011 (ip), vehicle: saline) was 1 % of control and 4 % of control. For the same molecule, the T/C (dose: 20.0 mg/kg/injection, schedule: Q01DX011 (ip), vehicle: alkali diluted with saline) was 1 % of control and 4 % of control, the T/C (dose: 21.4 mg/kg/injection, schedule: Q01DX011 (ip), vehicle: carboxymethylcellulose (CMC)) was 6 % of control and the T/C (dose: 22.0 mg/kg/injection, schedule: Q01DX011 (ip), vehicle: carboxymethylcellulose (CMC)) was 3 % of control. The T/C (dose: 25.0 mg/kg/injection, schedule: Q01DX011 (ip), vehicle: alkali diluted with saline) was 2 % of control and 11 % of control, the T/C (dose: 25.0 mg/kg/injection, schedule: Q01DX011 (ip), vehicle: carboxymethylcellulose (CMC)) was 4 % of control and the T/C (dose: 25.0 mg/kg/injection, schedule: Q01DX011 (ip), vehicle: saline) was 3 % of control. The T/C (dose: 30.0 mg/kg/injection, schedule: Q01DX011 (ip), vehicle: carboxymethylcellulose (CMC)) was 4 % of control and 6 % of control, the T/C (dose: 35.0 mg/kg/injection, schedule: Q01DX011 (ip), vehicle: carboxymethylcellulose (CMC)) was 5 % of control and the T/C (dose: 40.0 mg/kg/injection, schedule: Q01DX011 (ip), vehicle: alkali diluted with saline) was 2 % of control. For the same molecule, the T/C (dose: 40.0 mg/kg/injection, schedule: Q01DX011 (ip), vehicle: carboxymethylcellulose (CMC)) was 5 % of control, the T/C (dose: 44.0 mg/kg/injection, schedule: Q01DX007 (ip), vehicle: carboxymethylcellulose (CMC)) was 3 % of control and the T/C (dose: 44.0 mg/kg/injection, schedule: Q01DX011 (ip), vehicle: alkali diluted with saline) was 2 % of control. For the same molecule, the T/C (dose: 44.0 mg/kg/injection, schedule: Q01DX011 (ip), vehicle: carboxymethylcellulose (CMC)) was 3 % of control and 5 % of control, the T/C (dose: 50.0 mg/kg/injection, schedule: Q01DX011 (ip), vehicle: alkali diluted with saline) was 4 % of control and the T/C (dose: 60.0 mg/kg/injection, schedule: Q01DX011 (ip), vehicle: carboxymethylcellulose (CMC)) was 4 % of control. The T/C (dose: 62.0 mg/kg/injection, schedule: Q01DX011 (ip), vehicle: saline) was 2 % of control, the T/C (dose: 65.0 mg/kg/injection, schedule: Q01DX011 (ip), vehicle: alkali diluted with saline) was 1 % of control and the T/C (dose: 80.0 mg/kg/injection, schedule: Q01DX011 (ip), vehicle: alkali diluted with saline) was 2 % of control and 4 % of control. For the same molecule, the T/C (dose: 100.0 mg/kg/injection, schedule: Q01DX011 (ip), vehicle: alkali diluted with saline) was 1 % of control, the T/C (dose: 100.0 mg/kg/injection, schedule: Q01DX011 (ip), vehicle: saline) was 1 % of control and the T/C (dose: 320.0 mg/kg/injection, schedule: Q01DX001 (ip), vehicle: alkali diluted with saline) was 5 % of control. The T/C (dose: 320.0 mg/kg/injection, schedule: Q01DX001 (oral), vehicle: alkali diluted with saline) was 19 % of control, the T/C (dose: 320.0 mg/kg/injection, schedule: Q07DX002 (ip), vehicle: alkali diluted with saline) was 4 % of control and the T/C (dose: 480.0 mg/kg/injection, schedule: Q01DX001 (oral), vehicle: alkali diluted with saline) was 22 % of control. The T/C (dose: 480.0 mg/kg/injection, schedule: Q03DX004 (oral), vehicle: alkali diluted with saline) was 1 % of control, the T/C (dose: 480.0 mg/kg/injection, schedule: Q07DX002 (oral), vehicle: alkali diluted with saline) was 2 % of control and the T/C (dose: 640.0 mg/kg/injection, schedule: Q01DX001 (oral), vehicle: alkali diluted with saline) was 10 % of control. For the same molecule, the T/C (dose: 640.0 mg/kg/injection, schedule: Q07DX002 (oral), vehicle: alkali diluted with saline) was 2 % of control, the T/C (dose: 125.0 micrograms/kg/injection, schedule: Q01DX011 (ip), vehicle: saline) was 11 % of control and the T/C (dose: 250.0 micrograms/kg/injection, schedule: Q01DX011 (ip), vehicle: saline) was 20 % of control. For the same molecule, the T/C (dose: 500.0 micrograms/kg/injection, schedule: Q01DX011 (ip), vehicle: saline) was 9 % of control and the T/C (dose: 1000.0 micrograms/kg/injection, schedule: Q01DX011 (ip), vehicle: saline) was 3 % of control.

— PubChem BioAssay AID180 (DTP/NCI, 2004)
